Reference: publication PMC5413979 (Nature Communications, 2017)

Target: T1, VcINDY (Vibrio cholerae, UniProt Q9KNE0)
T1 construct: gene VC_A0025

`O=C(O)CCC(=O)O` [succinate] gave a Km of 220 µM.
